# Measurements: PMC7323874, “Vancomycin Resistance Is Overcome by Conjugation of Polycationic Peptides” (Angewandte Chemie (International Ed. in English), 2020)
# Legend:
# [1] = tested on: Staphylococcus aureus NCTC 10442; assay: Blocking experiments with Nα,Nε-diacetyl-Lys-D-Ala-D-Ala in microdilution; assay type: cell-based; settings: at least 100-fold excess of Nα,Nε-Diacetyl-Lys-D-Ala-D-Ala, pre-incubation minimum 1 hour at room temperature
# Method: (§1) Antimicrobial testing – Microdilution
# (§2) Antimicrobial testing was performed according to CLSI and EUCAST guidelines in microdilution.8-10 Therefore, all tested substances as well as controls were dissolved in water in different concentrations and serially diluted in MHB II (cation adjusted) on the 96-well plate. A logarithmic growing, overnight culture of the respective bacterial strain was used and adjusted to a McFarland corresponding to 1 × 10^8 cfu/ml. Afterwards the bacterial suspension was diluted to 1 ×10^6 cfu/ml and loaded on the 96-well polypropylene plates, resulting in a final bacterial concentration of 5 × 10^5 cfu/ml. After an incubation at 35 ± 1 °C for 18-20 hours (re-controlled after 24 hours) the MIC was determined as the lowest concentration without visible growth as described previously.11 For direct comparison of the tested substances, all results were calculated in mg/ml and mol/ml afterwards.
# For blocking experiments with NΑ,NΕ-DIACETYL-LYS-D-ALA-D-ALA the tested substances were incubated directly on the dilution plate with at least 100-fold excess of Nα,Nε-Diacetyl-Lys-D-Ala-D-Ala for a minimum of 1 hour at room temperature. Afterwards, the procedure was performed as described above. As further control substance, the glycopeptide antibiotic teicoplanin was evaluated. […] Resistance development in S. aureus was determined by passaging bacteria in increasing amounts of vancomycin, FU002 or, as control, fusidic acid. In principle, tubes with twofold dilutions of the compounds in 1 ml Muller Hinton broth were inoculated 1:100 with bacterial suspension. The tubes were then incubated for 24 h at 37 °C under shaking. After each passage, the tube with the highest compound concentration showing bacterial growth was used to inoculate the tubes of the next passage (1:100). The tube with the lowest compound concentration showing no growth was defined as the passage MIC. […]
# (§3) For the validation of possible side effects provoked by the conjugates, the cytotoxic effect of the lead candidate FU002 on human cells was assessed in a colorimetric viability assay. […]
# E. coli ATCC 25922 = assay type: cell-based; settings: median of at least triplicates on two different plates
# Method: as §1
# as §2, with “afterwards. […]” for “afterwards.”
# (§4) Resistance development in S. aureus was determined by passaging bacteria in increasing amounts of vancomycin, FU002 or, as control, fusidic acid. In principle, tubes with twofold dilutions of the compounds in 1 ml Muller Hinton broth were inoculated 1:100 with bacterial suspension. […]
# as §3
# P. aeruginosa ATCC 27853 = assay type: cell-based; settings: median of at least triplicates on two different plates
# Method: as §1
# as §2, with “afterwards. […]” for “afterwards.”
# (§5) As further control substance, the glycopeptide antibiotic teicoplanin was evaluated. […] Resistance development in S. aureus was determined by passaging bacteria in increasing amounts of vancomycin, FU002 or, as control, fusidic acid. […]
# as §3
# [2] = tested on: vancomycin-resistant strains (vanA, vanB and vanC); assay type: cell-based; settings: all values, vanB and vanC resistance types
# Method: as §1
# as §2, with “afterwards. […]” for “afterwards.”
# as §5, §3
# [3] = tested on: human cell lines (blood, liver, kidney); assay: Cytotoxicity, XTT viability assay; assay type: cell-based; settings: 64 µg/ml, 24 h incubation, three human cell lines (blood, liver, kidney)
# [4] = tested on: Staphylococcus aureus USA300; assay: Broth microdilution on vancomycin-sensitive strain; assay type: cell-based
# Method: as §1
# as §2, with “afterwards. […]” for “afterwards.”
# as §4, §3
# [5] = tested on: Staphylococcus aureus USA300 LAC (MRSA) infected mice; assay: In vivo efficacy model in infected mice; settings: female Balb/c mice, FU002 56.4 mg/kg body weight per day
Compound,effect of D-Ala-D-Ala binding motif on antibiotic activity [1],MIC (E. coli ATCC 25922),MIC (P. aeruginosa ATCC 27853),MIC (minimum inhibitory concentration) [2],cytotoxicity [3],activity compared with vancomycin (MIC) [4],"bacterial burden, colony forming units (CFU) in the liver ([5]; day 4 post infection, p < 0.05, Kruskal-Wallis test)","body weight of infected mice ([5]; i.v. infection, doses every 12 hours, start 2 hours p.i.)"
CN[C@H](CC(C)C)C(=O)N[C@H]1C(=O)N[C@@H](CC(N)=O)C(=O)N[C@H]2C(=O)N[C@H]3C(=O)N[C@H](C(=O)N[C@H](C(=O)O)c4cc(O)cc(O)c4-c4cc3ccc4O)[C@H](O)c3ccc(c(Cl)c3)Oc3cc2cc(c3O[C@@H]2O[C@H](CO)[C@@H](O)[C@H](O)[C@H]2O[C@H]2C[C@](C)(N)[C@H](O)[C@H](C)O2)Oc2ccc(cc2Cl)[C@H]1O [vancomycin],suppresses the antibiotic activity,,,,,,,
CC(C)C[C@H](C(=O)N[C@H]1C(=O)N[C@@H](CC(N)=O)C(=O)N[C@H]2C(=O)N[C@H]3C(=O)N[C@H](C(=O)N[C@H](C(=O)O)c4cc(O)cc(O)c4-c4cc3ccc4O)[C@H](O)c3ccc(c(Cl)c3)Oc3cc2cc(c3O[C@@H]2O[C@H](CO)[C@@H](O)[C@H](O)[C@H]2O[C@H]2C[C@](C)(N)[C@H](O)[C@H](C)O2)Oc2ccc(cc2Cl)[C@H]1O)N(C)C(=O)C1CCC(CN2C(=O)CC(SC[C@H](NC(=O)[C@H](CCCNC(=N)N)NC(=O)[C@H](CCCNC(=N)N)NC(=O)[C@H](CCCNC(=N)N)NC(=O)[C@H](CCCNC(=N)N)NC(=O)[C@H](CCCNC(=N)N)NC(=O)[C@@H](N)CCCNC(=N)N)C(N)=O)C2=O)CC1 (stereo partly drawn) [FU002],preserves its activity,≥ 640 µg/mL,≥ 640 µg/mL,below 4 mg L^−1,no relevant cytotoxicity,at least as active as vancomycin,significant reduction of bacterial burden,No infection‐related body weight loss
